Test results taken from US20060128724A1, “Pyrazole-substituted aminoheteroaryl compounds as protein kinase inhibitors” (AGOURON PHARMACEUTICALS, INC., priority 2004, published 2006).
pKi: −log10 of the molar value. Read-outs that look alike come from different tables or passages of the source.

Molecular target: T1, c-MET (HGFR) (Homo sapiens, UniProt P08581)
T1 construct: purchased Upstate 14-526
Experiment: HGFR Continuous-Coupled Spectrophotometric Assay
Type: biochemical
Conditions: Met-2 substrate peptide, 50 nM HGFR, 37° C.
Method in brief: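 Tyrosine kinase activity of 50 nM HGFR on the activation-loop Met-2 peptide, followed as NADH consumption at 340 nm over 10 min at 37 °C in a pyruvate kinase/LDH coupled system, HEPES pH 7.5 buffer with MgCl2 and DTT.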

T1 sequence (P08581 974-1390 limits assumed): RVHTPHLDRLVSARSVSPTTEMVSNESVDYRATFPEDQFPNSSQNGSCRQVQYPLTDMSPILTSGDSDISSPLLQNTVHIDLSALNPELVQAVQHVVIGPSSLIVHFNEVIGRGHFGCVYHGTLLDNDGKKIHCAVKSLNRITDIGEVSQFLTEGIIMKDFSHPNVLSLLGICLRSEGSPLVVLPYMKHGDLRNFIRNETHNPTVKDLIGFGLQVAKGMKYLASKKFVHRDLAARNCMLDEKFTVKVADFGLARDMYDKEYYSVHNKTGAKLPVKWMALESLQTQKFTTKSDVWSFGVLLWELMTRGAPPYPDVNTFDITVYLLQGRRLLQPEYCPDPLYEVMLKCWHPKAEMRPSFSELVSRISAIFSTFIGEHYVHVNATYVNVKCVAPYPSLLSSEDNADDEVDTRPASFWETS

| Compound | pKi (read-out: c-Met Ki) | pKi (read-out: Met Ki) |
| --- | --- | --- |
| CC(Oc1cc(-c2cnn(C3CN(C(C)C)C3)c2)cnc1N)c1c(Cl)ccc(F)c1Cl (stereo not drawn) [Example 97, 3-[1-(2,6-dichloro-3-fluorophenyl)ethoxy]-5-[1-(1-isopropylazetidin-3-yl)-1H-pyrazol-4-yl]pyridin-2-amine] | 7.52 | – |
| CC(Oc1cc(-c2cnn(C3CCN(CC(N)=O)CC3)c2)cnc1N)c1c(Cl)ccc(F)c1Cl (stereo not drawn) [Example 98, 2-[4-(4-{6-amino-5-[1-(2,6-dichloro-3-fluorophenyl)ethoxy]pyridin-3-yl}-1H-pyrazol-1-yl)piperidin-1-yl]acetamide] | 8.15 | – |
| CC(Oc1cc(-c2cnn(C3CC4CCC(C3)N4)c2)cnc1N)c1c(Cl)ccc(F)c1Cl (stereo not drawn) [Example 99, 5-[1-(8-azabicyclo[3.2.1]oct-3-yl)-1H-pyrazol-4-yl]-3-[1-(2,6-dichloro-3-fluorophenyl)ethoxy]pyridin-2-amine] | 8.30 | – |
| CC(Oc1cc(-c2cnn(Cc3nn[nH]n3)c2)cnc1N)c1c(Cl)ccc(F)c1Cl (stereo not drawn) [Example 100, 3-[1-(2,6-dichloro-3-fluorophenyl)ethoxy]-5-[1-(2H-tetrazol-5-ylmethyl)-1H-pyrazol-4-yl]pyridin-2-amine] | 7.40 | – |
| CCOC(=O)N1CCC(n2cc(-c3cnc(N)c(OC(C)c4c(Cl)ccc(F)c4Cl)c3)cn2)CC1 (stereo not drawn) [Example 101, ethyl 4-(4-{6-amino-5-[1-(2,6-dichloro-3-fluorophenyl)ethoxy]pyridin-3-yl}-1H-pyrazol-1-yl)piperidine-1-carboxylate] | 7.72 | – |
| CC(Oc1cc(-c2cnn(C3CN(CCO)C3)c2)cnc1N)c1c(Cl)ccc(F)c1Cl (stereo not drawn) [Example 102, 2-[3-(4-{6-amino-5-[1-(2,6-dichloro-3-fluorophenyl)ethoxy]pyridin-3-yl}11H-pyrazol-1-yl)azetidin-1-yl]ethanol] | 7.30 | – |
| COCCN1CC(n2cc(-c3cnc(N)c(OC(C)c4c(Cl)ccc(F)c4Cl)c3)cn2)C1 (stereo not drawn) [Example 103, 3-[1-(2,6-dichloro-3-fluorophenyl)ethoxy]-5-{1-[1-(2-methoxyethyl)azetidin-3-yl]-1H-pyrazol-4-yl}-pyridin-2-amine] | 7.15 | – |
| CC(Oc1cc(-c2cnn(C3CN(S(C)(=O)=O)C3)c2)cnc1N)c1c(Cl)ccc(F)c1Cl (stereo not drawn) [Example 104, 3-[1-(2,6-dichloro-3-fluorophenyl)ethoxy]-5-{1-[1-(methylsulfonyl)azetidin-3-yl]-1H-pyrazol-4-yl}pyridin-2-amine] | 7.44 | – |
| CC(Oc1cc(-c2cnn(C3CN(C(=O)CO)C3)c2)cnc1N)c1c(Cl)ccc(F)c1Cl (stereo not drawn) [Example 105, 2-[3-(4-{6-amino-5-[1-(2,6-dichloro-3-fluorophenyl)ethoxy]pyridin-3-yl}1H-pyrazol-1-yl)azetidin-1-yl]-2-oxoethanol] | 7.66 | – |
| CC(=O)N1CC(Cn2cc(-c3cnc(N)c(OC(C)c4c(Cl)ccc(F)c4Cl)c3)cn2)C1 (stereo not drawn) [Example 106, 5-{1-[(1-acetylazetidin-3-yl)methyl]-1H-pyrazol-4-yl}-3-[1-(2,6-dichloro-3-fluorophenyl)ethoxy]pyridin-2-amine] | 7.54 | – |
| CC(Oc1cc(-c2cnn(CC3CN(S(C)(=O)=O)C3)c2)cnc1N)c1c(Cl)ccc(F)c1Cl (stereo not drawn) [Example 107, 3-[1-(2,6-dichloro-3-fluorophenyl)ethoxy]-5-(1-{[1-(methylsulfonyl)azetidin-3-yl]methyl}-1H-pyrazol-4-yl)pyridin-2-amine] | 7.36 | – |
| CC(Oc1cc(-c2cnn(CC3CN(C(C)C)C3)c2)cnc1N)c1c(Cl)ccc(F)c1Cl (stereo not drawn) [Example 108, 3-[1-(2,6-dichloro-3-fluorophenyl)ethoxy]-5-{1-[(1-isopropylazetidin-3-yl)methyl]-1H-pyrazol-4-yl}pyridin-2-amine] | 7.24 | – |
| CC(Oc1cc(-c2cnn(C3CN(CC(N)=O)C3)c2)cnc1N)c1c(Cl)ccc(F)c1Cl (stereo not drawn) [Example 109, 2-[3-(4-{6-amino-5-[1-(2,6-dichloro-3-fluorophenyl)ethoxy]pyridin-3-yl}1H-pyrazol-1-yl)azetidin-1-yl]acetamide] | 7.68 | – |
| CC(=O)N1CC(n2cc(-c3cnc(N)c(OC(C)c4c(Cl)ccc(F)c4Cl)c3)cn2)C1 (stereo not drawn) [Example 110, 5-[1-(1-acetylazetidin-3-yl)-1H-pyrazol-4-yl]-3-[1-(2,6-dichloro-3-fluorophenyl)ethoxy]pyridin-2-amine] | 7.49 | – |
| CC(Oc1cc(-c2cnn(CC3CN(CC#N)C3)c2)cnc1N)c1c(Cl)ccc(F)c1Cl (stereo not drawn) [Example 111, {3-[(4-{6-amino-5-[1-(2,6-dichloro-3-fluorophenyl)ethoxy]pyridin-3-yl}-1H-pyrazol-1-yl)methyl]azetidin-1-yl}acetonitrile] | 7.43 | – |
| CC(Oc1cc(-c2cnn(CC3CN(CC4CC4)C3)c2)cnc1N)c1c(Cl)ccc(F)c1Cl (stereo not drawn) [Example 112, 5-(1-{[1-(cyclopropylmethyl)azetidin-3-yl]methyl}1H-pyrazol-4-yl)-3-[1-(2,6-dichloro-3-fluorophenyl)ethoxy]pyridin-2-amine] | 7.33 | – |
| CC(Oc1cc(-c2cnn(C3CC4CCC(C3)N4C)c2)cnc1N)c1c(Cl)ccc(F)c1Cl (stereo not drawn) [Example 115, 3-[1-(2,6-dichloro-3-fluorophenyl)ethoxy]-5-[1-(8-methyl-8-azabicyclo[3.2.1]oct-3-yl)-1H-pyrazol-4-yl]pyridin-2-amine] | 8.05 | – |

| Compound | pKi (read-out: c-Met Ki) | pKi (read-out: Met Ki) |
| --- | --- | --- |
| CC(Oc1cc(-c2cnn(C3CCS(=O)(=O)CC3)c2)cnc1N)c1c(Cl)ccc(F)c1Cl (stereo not drawn) [Example 116, 3-[1-(2,6-dichloro-3-fluorophenyl)ethoxy]-5-[1-(1,1-dioxidotetrahydro-2H-thiopyran-4-yl)-1H-pyrazol-4-yl]pyridin-2-amine] | 7.77 | – |
| CC(Oc1cc(-c2cnn(C3CCCS(=O)(=O)C3)c2)cnc1N)c1c(Cl)ccc(F)c1Cl (stereo not drawn) [Example 117, 3-[1-(2,6-dichloro-3-fluorophenyl)ethoxy]-5-[1-(1,1-dioxidotetrahydro-2H-thiopyran-3-yl)-1H-pyrazol-4-yl]pyridin-2-amine] | 7.85 | – |
| CCS(=O)(=O)N1CCC(n2cc(-c3cnc(N)c(OC(C)c4c(Cl)ccc(F)c4Cl)c3)cn2)CC1 (stereo not drawn) [Example 121] | – | 7.80 |
| CC(Oc1cc(-c2cnn(C3CCN(C(=O)NCCO)CC3)c2)cnc1N)c1c(Cl)ccc(F)c1Cl (stereo not drawn) [Example 122, 4-(4-[6-Amino-5-[1-(2,6-dichloro-3-fluoro-phenyl)-ethoxy]-pyridin-3-yl}-pyrazol-1-yl)-piperidine-1-carboxylic acid (2-hydroxy-ethyl)-amide] | – | 6.82 |
| CC(Oc1cc(-c2cnn(C3CCN(C(=O)CN4CCOCC4)CC3)c2)cnc1N)c1c(Cl)ccc(F)c1Cl (stereo not drawn) [Example 123, 1-[4-(4-{6-Amino-5-[1-(2,6-dichloro-3-fluoro-phenyl)-ethoxy]-pyridin-3-yl}-pyrazol-1-yl)-piperidin-1-yl]-2-morpholin-4-yl-ethanone] | – | 7.89 |
| COCC(=O)N1CCC(n2cc(-c3cnc(N)c(OC(C)c4c(Cl)ccc(F)c4Cl)c3)cn2)CC1 (stereo not drawn) [Example 124, 1-[4-(4-{6-Amino-5-[1-(2,6-dichloro-3-fluoro-phenyl)-ethoxy]-pyridin-3-yl}-pyrazol-1-yl)-piperidin-1-yl]-2-methoxy-ethanone] | – | 7.85 |
| CC(Oc1cc(-c2cnn(C3CCN(C(=O)CN4CCCC4)CC3)c2)cnc1N)c1c(Cl)ccc(F)c1Cl (stereo not drawn) [Example 125, 1-[4-(4-{6-Amino-5-[1-(2,6-dichloro-3-fluoro-phenyl)-ethoxy]-pyridin-3-yl}-pyrazoI-1-yl)-piperidin-1-yl]-2-pyrrolidin-1-yl-ethanone] | – | 7.85 |
| CCN(CC)CC(=O)N1CCC(n2cc(-c3cnc(N)c(OC(C)c4c(Cl)ccc(F)c4Cl)c3)cn2)CC1 (stereo not drawn) [Example 126, 1-[4-(4-{6-Ainino-5-[1-(2,6-dichloro-3-fluoro-phenyl)-ethoxy]-pyridin-3-yl}-pyrazol-1-yl)-piperidin-1-yl]-2-diethylamino-ethanone] | – | 7.82 |
| CC(Oc1cc(-c2cnn(C3CCNCC3)c2)cnc1N)c1cc(F)ccc1Br (stereo not drawn) [Example 128, 3-[1-(2-Bromo-5-fluoro-phenyl)-ethoxy]-5-(1-piperidin-4-yl-1H-pyrazol-4-yl)-pyridin-2-ylamine] | – | 6.46 |
| CC(Oc1cccnc1N)c1cc(F)ccc1C#N (stereo not drawn) [Example 129, 2-[1-(2-Amino-pyridin-3-yloxy)-ethyl]-4-fluoro-benzonitrile] | – | 5.19 |
| CC(Oc1cc(-c2cnn(CC(C)(C)O)c2)cnc1N)c1c(Cl)ccc(F)c1Cl (stereo not drawn) [Example 130, 1-(4-{6-Amino-5-[1-(2,6-dichloro-3-fluoro-phenyl)-ethoxy]-pyridin-3-yl}-pyrazol-1-yl)-2-methyl-propan-2-ol] | – | 7.35 |
| CC(Oc1cc(-c2cnn(CC3(C)COC3)c2)cnc1N)c1c(Cl)ccc(F)c1Cl (stereo not drawn) [Example 131, 3-[1-(2,6-Dichloro-3-fluoro-phenyl)-ethoxy]-5-[1-(3-methyl-oxetan-3-ylmethyl)-1H-pyrazol-4-yl]-pyridin-2-ylamine] | – | 7.30 |
| CC(Oc1cc(-c2cnn(CC3CCOCC3)c2)cnc1N)c1c(Cl)ccc(F)c1Cl (stereo not drawn) [Example 132, 3-[1-(2,6-Dichloro-3-fluoro-phenyl)-ethoxy]-5-[1-(tetraydro-pyran-4-ylmethyl)-1H-pyrazol-4-yl]-pyridin-2-amine] | – | 7.38 |
| CC(Oc1cc(-c2cnn(CCN3CCCC3=O)c2)cnc1N)c1c(Cl)ccc(F)c1Cl (stereo not drawn) [Example 133, 1-[2-(4-{6-Amino-5-[1-(2,6-dichloro-3-fluoro-phenyl)-ethoxy]-pyridin-3-yl}pyrazol-1-yl)-ethyl]-pyrrolidin-2-one] | – | 6.98 |
| CC(Oc1cc(-c2cnn(C[C@H]3CCC(=O)N3)c2)cnc1N)c1c(Cl)ccc(F)c1Cl (stereo partly drawn) [Example 134, 5-(4-{6-Amino-5-[1-(2,6-dichloro-3-fluoro-phenyl)-ethoxy]-pyridin-3-yl}-pyrazol-1-ylmethyl)-pyrrolidin-2R-one] | – | 7.62 |
| CC(Oc1cc(-c2cnn(C3CCNCC3)c2)cnc1N)c1cc(F)ccc1C#N (stereo not drawn) [Example 135, 2-{1-[2-Amino-5-(1-piperidin-4-yl-1H-pyrazol-4-yl)-pyridin-3-yloxy]ethyl}-4-fluoro-benzonitrile] | – | 6.07 |
